Where a SMILES comes first, the peptide text is derived from it. The star is where a group is joined. Cbz = O=C(OCc1ccccc1)*
How the values were obtained:
signal peptidase = conditions: previous studies (Weihofen et al., 2000); cited from earlier work
SPPase [1] = test: Photo-labelling of CHAPS-solubilised ER membrane proteins with TBL4K, anti-biotin western blot; type: binding, dog; conditions: 50 nM TBL4K
Experimental: CHAPS-solubilised ER membrane proteins were mixed with 50 nM TBL4K (dissolved in DMSO) and samples incubated at 30° C. for 1 hour. Where indicated, samples were irradiated with UV light before precipitation with 10% trichloroacetic acid. Proteins were resolved on Tris-glycine acrylamide gels, transferred to PVDF membrane and biotinylated proteins were visualised by western blotting with polyclonal anti-biotin antibody.
For analytical labelling, 2 μl of CHAPS-solubilised ER membrane proteins were diluted with 16 μl of SPPase buffet (25 mM HEPES-KOH, pH 7.6, 100 mM KOAc, 2 mM Mg(OAc)2, 1 mM DTI) and supplemented with 50 nM TBL4K (dissolved in DMSO). Samples were incubated at 30° C. for 1 hour and subsequently irradiated with UV light (30 seconds; 350 W high pressure mercury lamp with a pyrex filter, 10 cm distance to lamp). Proteins were precipitated with 10% trichloroacetic acid and resolved on either Tris-glycine acrylamide gels (10% T, 2.7% C) (Lämmli, 1970 Nature, 227, 570-574). Biotinylated proteins were visualised by Western blotting with a polyclonal anti-biotin antibody (Bethyl). Western blot analysis was performed as described in Section 3, Materials and Methods for R308 antisera. […]

[2] = target: T1, signal peptide peptidase (SPPase) (Canis lupus familiaris, UniProt A0A8I3P6M4); test: In vitro translation/translocation of SP-E1/100 and core-E1/100 with ER-derived rough microsomes: SPPase processing; type: biochemical, dog; conditions: 10 μM (Z-LL)2-ketone; for Production of the 19 kDa core species (core179) from core-E1/100: FIG. 1B, FIG. 3B
T1 construct: translated in reticulocyte lysate in the presence of endoplasmic reticulum-(ER) derived rough microsomes; from tissue; host or cells: nuclease-treated rough microsomes from dog pancreas
T1 sequence (A0A8I3P6M4 entry or part of it): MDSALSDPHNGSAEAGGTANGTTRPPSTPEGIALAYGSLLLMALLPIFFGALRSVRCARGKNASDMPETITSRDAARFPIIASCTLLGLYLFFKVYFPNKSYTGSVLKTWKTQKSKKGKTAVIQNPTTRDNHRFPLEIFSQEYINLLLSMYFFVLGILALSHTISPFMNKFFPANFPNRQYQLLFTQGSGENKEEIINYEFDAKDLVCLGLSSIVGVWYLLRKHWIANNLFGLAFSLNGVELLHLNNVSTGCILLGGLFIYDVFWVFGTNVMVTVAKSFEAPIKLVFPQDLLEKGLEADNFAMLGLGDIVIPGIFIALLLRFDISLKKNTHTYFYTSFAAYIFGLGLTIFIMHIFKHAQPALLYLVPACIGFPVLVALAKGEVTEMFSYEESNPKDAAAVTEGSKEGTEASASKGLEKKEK
Experimental: The mRNAs were translated in 25 μl rabbit reticulocyte lysate (Promega) containing [^35S]-methionine (Amersham-Pharmacia) and, where indicated, 2 eq of nuclease-treated rough microsomes prepared from dog pancreas (Martoglio et al., 1998, Cell Biology: A Laboratory Handbook. Academic Press, San Diego, Calif., vol 2, 265-274). To inhibit signal peptide peptidase (SPPase) processing, 10 μM (Z-LL)2-ketone was added to reactions (Weihofen et al., 2000 J Biol Chem 275, 30951-30956), and reactions were supplemented with 30 μM N-benzoyl-Asn-Leu-Thr-methyamide to prevent N-glycosylation of translated products (Martoglio et al., 1998, Cell Biology: A Laboratory Handbook. Academic Press, San Diego, Calif., vol 2,265-274). Samples were incubated for 30 min at 30° C. Reactions containing microsomes were next diluted with 25 μl of RM buffer (50 mM HEPES-KOH, pH7.6, 50 mM KOAc, 2 mM Mg(OAc)2, 1 mM DTT, 250 mM sucrose), and the salt concentration was raised to 500 mM KOAc. After incubation for 5 min on ice, membranes were separated by centrifugation through a 100 μl sucrose cushion (RM buffer with 500 mM KOAc and 500 mM sucrose) at 48,000 rpm for 3 min at 4° C. in a Beckman TLA100 rotor. Membrane pellets were prepared for SDS-PAGE as described (Weihofen et al., 2000 J Biol Chem. 275, 30951-30956).
This processing event was re-examined in an in vitro translation/translocation system. Two RNA substrates, that had been transcribed in vitro, were employed. One contained the E1 signal sequence and the N-terminal 100 aa of E1 (SP-E1/100), and the second consisted of the entire core protein, including the signal sequence, plus the N-terminal 100 aa of E1 (core-E1/100). These were translated in reticulocyte lysate in the presence of endoplasmic reticulum-(ER) derived rough microsomes and [^35S]-methionine. Microsomes were subsequently isolated and analysed for retention of radiolabelled translation products.

BHK C13 cells = test: Abundance of HCV core protein in electroporated BHK cells treated with MG132 (western blot, immunofluorescence); type: cell-based, baby hamster; conditions: MG132 for 12 hours at 37° C.
Experimental: BHK cells were electroporated with RNA and 5 hours after incubation at 37° C., they were treated with MG132 for 12 hours at 37° C. Cells were either fixed with methanol for indirect immunofluorescence (A) or extracts were prepared for Western blot analysis (B and C).
For the purposes of the present invention, the cultured cells derived from baby hamster kidney (BHK) C13 cells were grown and maintained in Glasgow minimal Eagle's Medium supplemented with 10% new-born calf serum (CS), 4% tryptose phosphate broth, and 100 IU/ml penicillin/streptomycin (ETC10). To treat cells with MG132 (Boston Biochem), cultured cells were incubated for 5 hours after electroporation at 37° C. and the BHK media was replaced with fresh media containing the protease inhibitor at a final concentration of […]. Incubation was continued at 37° C. for a further 12 hours before the cells were either harvested for Western blot analysis or fixed for indirect immunofluorescence studies.

SPPase [3] = test: Signal peptide processing of p-PrlPP/29 by CHAPS-solubilised ER membrane proteins containing SPPase activity; type: biochemical, dog; parameters: SPF production: dose or concentration left out as unconfirmed
Experimental: Radio-labelled p-Prl^PP/29 signal peptide was generated by in vitro translation in wheat germ extract containing [^35S]-methionine. Peptide was added to CHAPS-solubilised membranes in the absence or presence of TBL4K (at the indicated final concentrations) and incubated for 1 hour at 30° C. Proteins were precipitated with 10% trichloroacetic acid and analysed by SDS-PAGE using Tris-bicine-urea acrylamide gels. Bands corresponding to signal peptide substrate (ps) and the fragment of signal peptide remaining after SPPase processing (SPF) are indicated.
The inhibitory effect of TBL4K on SPPase was assayed with CHAPS-solubilised ER membrane proteins and an in vitro translated peptide substrate. The substrate was a 29 aa residues long mutant signal peptide of pre-prolactin (p-Prl^PP/29; […]). The VV→PP mutation at the end of the signal peptide prevents cleavage by signal peptidase, which can cleave the peptide at the cryptic cleavage site at G27 when solubilised in CHAPS (B.M. unpublished). […] Proteins were precipitated by adding 4 μl of 100% trichloroacetic acid, and analysed by SDS-PAGE using Tris-bicine-urea acrylamide gels (15% T or 10% T, 5% C; 8 M urea) (Wiltfang et al., 1997 Electrophoresis 18, 527-532). […]

[4] = test system: T2, p-Prl^PP/29, 29 aa mutant signal peptide of pre-prolactin
T2 sequence: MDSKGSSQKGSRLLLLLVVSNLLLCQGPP

CC(C)C[C@H](NC(=O)OCc1ccccc1)C(=O)N[C@@H](CC(C)C)C(=O)NCC(=O)CNC(=O)[C@H](CC(C)C)NC(=O)[C@H](CC(C)C)NC(=O)OCc1ccccc1 [(Z-LL)2 ketone]
Effect on cleavage by signal peptidase (signal peptidase): does not affect | Labelling by TBL4K in presence of competitor (SPPase [1]; highest concentration of (Z-LL)2 ketone, FIG. 10): almost completely abolished | Cleavage by SPPase of the signal peptide generated from SP-E1/100 ([2]; FIG. 1A): blocked | Production of the 19 kDa core species (core179) from core-E1/100 [2]: blocked | Production of the 19 kDa core species (core179) from core-E1/100 ([2]; listed as SPPase inhibitor): not generated

CC(C)C[C@@H](C=O)NC(=O)[C@H](CC(C)C)NC(=O)[C@H](CC(C)C)NC(=O)OCc1ccccc1 [MG132] (Cbz-Leu-Leu-Leu-aldehyde)
Levels of core produced by pSF/CE1E2 (core variant lacking residues 125-144) (BHK C13 cells; FIG. 7B lanes 3 and 4): enhanced levels | Amount of core in cells electroporated with pSF/MUTIII RNA (125-144 deleted, signal peptide mutations) (BHK C13 cells; FIG. 7B lanes 5 and 6): did not affect

(TDBA-LL)(Biotin-X-LL) ketone [TBL4K]
SPF production (SPPase [3]; highest concentration used): abolished | IC50 (SPPase [3]; substrate p-PrlPP/29, 1 hour at 30° C., FIG. 9, read-out: IC50 for inhibition of SPPase activity): ~50 nM | Proteins labelled after UV activation (SPPase [1]; UV light, FIG. 10 lane 3): labelling of a major product of about 42 kDa

signal peptide peptidase (SPPase) of ER-derived rough microsomes from dog pancreas
product cleaved by SPPase (in vitro translation/translocation) (core-E1/100 MUTIII): failed to generate any detectable product that had been cleaved by SPPase | cleavage of the signal peptide (in vitro translation/translocation) (SP-E1/100 MUTII): cleavage of the signal peptide was reduced with both mutants, but to a greater extent with pSP/MUTII as compared to pSP/MUTI | signal peptide processing by SPPase (in vitro translation/translocation, with and without (Z-LL)2 ketone) (SP-E1/100 (wild type)): the internal signal sequence at the junction of core-E1 functions as a typical ER targeting signal and is a substrate not only for signal peptidase but also for SPPase | cleavage of the signal peptide (in vitro translation/translocation) (SP-E1/100 MUTI): cleavage of the signal peptide was reduced with both mutants, but to a greater extent with pSP/MUTII as compared to pSP/MUTI | signal peptide processing (production of the SPF fragment) with CHAPS-solubilised ER membrane proteins [4]: signal peptide processing reactions were performed with a substrate, p-Prl^PP/29, that corresponds to a mutated signal peptide of pre-prolactin, and CHAPS-solubilised ER membrane proteins containing SPPase activity | efficiency of processing (core179 relative to core191+core179) (core-E1/100 MUTI): reduced efficiency of processing from 40% to 12% | processing of the signal peptide by SPPase (SP-E1/100 MUTIII): less than 5% processing of the signal peptide by SPPase | product cleaved by SPPase (in vitro translation/translocation) (core-E1/100 MUTII): failed to generate any detectable product that had been cleaved by SPPase | efficiency of processing (core179 relative to core191+core179) (core-E1/100 (wild type)): reduced efficiency of processing from 40% to 12% | production of the 19 kDa core species (in vitro translation/translocation, with and without (Z-LL)2 ketone) (core-E1/100 (wild type)): the signal peptide at the junction of core-E1 sequences in HCV is first cleaved by signal peptidase and subsequently processed by SPPase
